Data: ChEMBL document CHEMBL3739261, “Synthesis and antibacterial activity evaluation of C-5 side chain modified analogues of FYL-66, a potential agent against methicillin-resistant Staphylococcus aureus” (Medchemcomm, 2015)
In brackets after ≈: the same amount, converted by molar mass. Activity calls are given as the source filed them. The rule behind the calls is not given here.

Legend:
[1] = tested on: Staphylococcus aureus; test: Antibacterial activity against methicillin-susceptible Staphylococcus aureus ATCC 25923 incubated for 18 hrs by broth microdilution method; format: functional; conditions: ATCC 25923, 18 h
[2] = tested on: Staphylococcus aureus; test: Antibacterial activity against methicillin-susceptible Staphylococcus aureus CMCC 2603 incubated for 18 hrs by broth microdilution method; format: functional; conditions: CMCC 2603, 18 h
[3] = tested on: Staphylococcus aureus; test: Antibacterial activity against methicillin-susceptible Staphylococcus aureus ATCC 29213 incubated for 18 hrs by broth microdilution method; format: functional; conditions: ATCC 29213, 18 h
[4] = tested on: Staphylococcus aureus; test: Antibacterial activity against methicillin-susceptible Staphylococcus aureus ATCC 6538 incubated for 18 hrs by broth microdilution method; format: functional; conditions: ATCC 6538, 18 h
[5] = tested on: Staphylococcus aureus; test: Antibacterial activity against methicillin-resistant Staphylococcus aureus ATCC 33591 incubated for 18 hrs by broth microdilution method; format: functional; conditions: ATCC 33591, 18 h
[6] = tested on: Staphylococcus aureus; test: Antibacterial activity against methicillin-resistant Staphylococcus aureus ATCC 43300 incubated for 18 hrs by broth microdilution method; format: functional; conditions: ATCC 43300, 18 h
[7] = tested on: Escherichia coli; test: Antibacterial activity against Escherichia coli ATCC 25922 incubated for 18 hrs by broth microdilution method; format: functional; conditions: ATCC 25922, 18 h
[8] = tested on: Pseudomonas aeruginosa; test: Antibacterial activity against Pseudomonas aeruginosa ATCC 27853 incubated for 18 hrs by broth microdilution method; format: functional; conditions: ATCC 27853, 18 h
[9] = Cytotoxicity against HEK293A cells after 48 hrs by MTT assay; format: cell-based; conditions: Homo sapiens, HEK293-A
[10] = Cytotoxicity against human L02 cells after 48 hrs by MTT assay; format: cell-based; conditions: L02, 48 h
[11] = tested on: Staphylococcus aureus; test: Antibacterial activity against methicillin-resistant Staphylococcus aureus ATCC 33591 in neutropenic Kunming mouse systemic infection model assessed as survival rate at 20 mg/kg, po administered 1 hr post inoculation measured on day 1 to 2; format: functional; conditions: ATCC 33591, po
[12] = Solubility of compound in distilled water after 24 hrs by HPLC analysis; format: physicochemical
[13] = Octanol/water partition coefficient, log P of the compound by HPLC assay; format: physicochemical
[14] = tested on: Staphylococcus aureus; test: Antibacterial activity against methicillin-resistant Staphylococcus aureus ATCC 33591 in neutropenic Kunming mouse systemic infection model assessed as survival rate at 20 mg/kg, po administered 1 hr post inoculation measured on day 3; format: functional; conditions: ATCC 33591, po
[15] = tested on: Staphylococcus aureus; test: Antibacterial activity against methicillin-resistant Staphylococcus aureus ATCC 33591 in neutropenic Kunming mouse systemic infection model assessed as survival rate at 10 mg/kg, po administered 1 hr post inoculation measured after 1 week; format: functional, organism-based
[16] = AUC (0 to infinity) in Sprague-Dawley rat blood at 10 mg/kg, po by HPLC analysis; format: ADME, organism-based; design: dose 10 mg/kg, route oral, time infinity
[17] = AUC (0 to infinity) in Sprague-Dawley rat blood at 10 mg/kg, iv by HPLC analysis; format: ADME, organism-based; design: dose 10 mg/kg, route intravenous, time infinity
[18] = Clearance in Sprague-Dawley rat blood at 10 mg/kg, po by HPLC analysis; format: ADME, organism-based
[19] = Half life in Sprague-Dawley rat blood at 10 mg/kg, po by HPLC analysis; format: ADME, organism-based
[20] = Half life in Sprague-Dawley rat blood at 10 mg/kg, iv by HPLC analysis; format: ADME, organism-based
[21] = Tmax in Sprague-Dawley rat blood at 10 mg/kg, po by HPLC analysis; format: ADME, organism-based
[22] = Tmax in Sprague-Dawley rat blood at 10 mg/kg, iv by HPLC analysis; format: ADME, organism-based
[23] = Cmax in Sprague-Dawley rat blood at 10 mg/kg, po by HPLC analysis; format: ADME, organism-based; design: dose 10 mg/kg, route oral
[24] = Cmax in Sprague-Dawley rat blood at 10 mg/kg, iv by HPLC analysis; format: ADME, organism-based; design: dose 10 mg/kg, route intravenous
[25] = Clearance in Sprague-Dawley rat blood at 10 mg/kg, iv by HPLC analysis; format: ADME, organism-based
[26] = Oral bioavailability in Sprague-Dawley rat blood at 10 mg/kg by HPLC analysis; format: ADME, organism-based
[27] = tested on: Staphylococcus aureus; test: Antibacterial activity against methicillin-resistant Staphylococcus aureus; format: functional
[28] = tested on: Streptococcus pneumoniae; test: Antibacterial activity against Penicillin-resistant Streptococcus pneumoniae; format: functional
[29] = tested on: Enterococcus; test: Antibacterial activity against vancomycin-resistant Enterococcus; format: functional
[30] = tested on: Enterococcus; test: Antibacterial activity against Enterococcus; format: functional

Row | SMILES | MIC [1] [µg/mL] | MIC [2] [µg/mL] | MIC [3] [µg/mL] | MIC [4] [µg/mL] | MIC [5] [µg/mL] | MIC [6] [µg/mL] | MIC [7] [µg/mL] | MIC [8] [µg/mL] | IC50 [9] [µg/mL] | IC50 [10] [µg/mL] | survival at 20 mg/kg [11] [%] | solubility at 24 h [12] [µM] | logP [13] | AUC(0-inf) [16] [µg·h/mL] | AUC(0-inf) [17] [µg·h/mL] | CL/F [18] [mL/min/kg] | half-life [19] [h] | half-life [20] [h] | Tmax [21] [h] | Tmax [22] [min] | other results
1 | O=C(NC[C@H]1CN(c2ccc(-n3cc(-c4ccccn4)cn3)c(F)c2)C(=O)O1)C(F)F | 2 (≈ 4.64 µM) | 2 (≈ 4.64 µM) | 2 (≈ 4.64 µM) | 2 (≈ 4.64 µM) | 2 (≈ 4.64 µM) | 2 (≈ 4.64 µM) | > 32 | > 32 | 167 (≈ 387 µM) | > 400 | 40 | 29.9 (≈ 12.9 µg/mL) | 1.9 | 51.6 | 57.6 | 3.33 | 8.87 | 5.4 | 1.5 | 6.6 | survival at 20 mg/kg [14]: 30%; Activity [15]: Active; Cmax [23]: 4360 ng/mL; Cmax [24]: 15000 ng/mL; clearance [25]: 3 mL/min/kg; bioavailability [26]: 89.6%
2 | CC(=O)NC[C@H]1CN(c2ccc(-n3cc(-c4ccccn4)cn3)c(F)c2)C(=O)O1 | 2 (≈ 5.06 µM) | 2 (≈ 5.06 µM) | 2 (≈ 5.06 µM) | 2 (≈ 5.06 µM) | 2 (≈ 5.06 µM) | 2 (≈ 5.06 µM) | > 32 | > 32 | 174 (≈ 440 µM) | 261 (≈ 660 µM) | 30 | 134 (≈ 52.8 µg/mL) | 1.35 | 157 | 205 | 1.5 | 13.1 | 0.88 | 11 | 6.6 | Cmax [23]: 5770 ng/mL; clearance [25]: 0.833 mL/min/kg; bioavailability [26]: 76.7%; MIC [27]: 0.25 µg/mL (≈ 0.632 µM); MIC [28]: 0.25 µg/mL (≈ 0.632 µM); MIC [29]: 0.25 µg/mL (≈ 0.632 µM); MIC [30]: 0.25 µg/mL (≈ 0.632 µM)
